The record followed here is patent publication US11319299B2, “Substituted carboxamides as inhibitors of WDR5 protein-protein binding” (PROPELLON THERAPEUTICS INC., priority 2016, dated 2022).

Structures are written as SMILES. Bounds are passed on as bounds.

One test deals with WDR5 (Homo sapiens (Human), UniProt P61964). Put plainly: Surface Plasmon Resonance (SPR) assay, KD and residence time. Type of test: binding. Conditions: surface plasmon resonance (SPR) assay; read-out: WDR5 binding affinity (KD). How it is done:
(i) Surface Plasmon Resonance (SPR) Assay
The lifetime of a drug on its target is determined by two rate constants: the association rate constant (kon) and the dissociation rate constant (koff). In principle, the lifetime of the binary drug—target complex is thus extended by a rapid rate of drug binding and/or a slow rate of drug—target complex dissociation. The in vivo lifetime of a drug-target complex is most critically dependent on the value of the koff [Nat. Rev. Drug Discov. […] Drug Discov. […] Drug-target residence time is defined as the reciprocal of koff (τ=1/koff), making the residence time a parameter that is easily measured by routine in vitro assay methods.
`C[C@@H]1CN(c2cc(F)c(-c3cncc(Cl)c3)cc2NC(=O)c2c[nH]c(=O)cc2C(F)(F)F)C[C@H](C)N1C` [Example 206, N-[5-(5-chloropyridin-3-yl)-4-fluoro-2-[(3R,5S)-3,4,5-trimethylpiperazin-1-yl]phenyl]-6-oxo-4-(trifluoromethyl)-1H-pyridine-3-carboxamide]: the Kd worked out at 3.85 nM.

Regarding `Cc1csc(C(=O)Nc2cc(-c3cnc(N4CCOCC4)nc3)c(F)cc2N2CCN(C)C(C)C2)n1` (stereo in doubt) [Example 181, N-[4-fluoro-5-(2-morpholin-4-ylpyrimidin-5-yl)-2-[(3R)-3,4-dimethylpiperazin-1-yl]phenyl]-4-methyl-1,3-thiazole-2-carboxamide], the Kd was above 200 nM.

`C[C@@H]1CN(c2cc(F)c(-c3cccc(N4CCOCC4)c3)cc2NC(=O)c2c[nH]c(=O)cc2C(F)(F)F)C[C@H](C)N1C` [Example 85, N-[4-fluoro-5-(3-morpholin-4-ylphenyl)-2-[(3R,5S)-3,4,5-trimethylpiperazin-1-yl]phenyl]-6-oxo-4-(trifluoromethyl)-1H-pyridine-3-carboxamide]: the Kd was 0.703 nM.

In the case of `CC1CN(c2cc(F)c(-c3ccc(N4CCOCC4)cc3)cc2NC(=O)c2cnn(C)c2)CCN1C` (stereo in doubt) [Example 122, N-[4-fluoro-5-(4-morpholin-4-ylphenyl)-2-[(3R)-3,4-dimethylpiperazin-1-yl]phenyl]-1-methylpyrazole-4-carboxamide], the Kd came to 70.2 nM.

Take `C[C@@H]1CN(c2cc(F)c(C3=CC4CCC(C3)N4)cc2NC(=O)c2c[nH]c(=O)cc2C(F)(F)F)C[C@H](C)N1C` (stereo partly drawn) [Example 330, N-[5-(8-azabicyclo[3.2.1]oct-2-en-3-yl)-4-fluoro-2-[(3R,5S)-3,4,5-trimethylpiperazin-1-yl]phenyl]-6-oxo-4-(trifluoromethyl)-1H-pyridine-3-carboxamide]: the Kd was determined as 5.74 nM.

With `C[C@@H]1CN(c2cc(F)c(C3=CCN(Cc4ccc(N5CCOCC5)cc4)CC3)cc2NC(=O)c2c[nH]c(=O)cc2C(F)(F)F)C[C@H](C)N1C` [Example 165, N-[4-fluoro-5-[1-[(4-morpholin-4-ylphenyl)methyl]-3,6-dihydro-2H-pyridin-4-yl]-2-[(3R,5S)-3,4,5-trimethylpiperazin-1-yl]phenyl]-6-oxo-4-(trifluoromethyl)-1H-pyridine-3-carboxamide], the Kd came out at 6.28 nM.

Turning to `C[C@@H]1CN(c2ncc(-c3cc(NC(=O)c4c[nH]c(=O)cc4C(F)(F)F)c(N4C[C@@H](C)N(C)[C@H](C)C4)cc3F)cn2)C[C@H](C)O1` (stereo in doubt) [Example 356, N-[4-fluoro-5-[2-[(2R,6S)-2,6-dimethylmorpholin-4-yl]pyrimidin-5-yl]-2-[(3R,5R)-3,4,5-trimethylpiperazin-1-yl]phenyl]-6-oxo-4-(trifluoromethyl)-1H-pyridine-3-carboxamide], the Kd was found to be 19.9 nM.

As to `O=C(Nc1cc(-c2cnc(N3CCOCC3)nc2)c(F)cc1N1CCN2CCOCC2C1)c1c[nH]c(=O)cc1C(F)(F)F` (centres unmarked) [Example 120, N-[2-(3,4,6,7,9,9a-hexahydro-1H-pyrazino[2,1-c][1,4]oxazin-8-yl)-4-fluoro-5-(2-morpholin-4-ylpyrimidin-5-yl)phenyl]-6-oxo-4-(trifluoromethyl)-1H-pyridine-3-carboxamide], the Kd was above 200 nM.

Turning to `Cc1cnc(N2CC=C(c3cc(NC(=O)c4c[nH]c(=O)cc4C(F)(F)F)c(N4C[C@@H](C)N(C)[C@@H](C)C4)cc3F)CC2)nc1` [Example 271, N-[4-fluoro-5-[1-(5-methylpyrimidin-2-yl)-3,6-dihydro-2H-pyridin-4-yl]-2-[(3R,5S)-3,4,5-trimethylpiperazin-1-yl]phenyl]-6-oxo-4-(trifluoromethyl)-1H-pyridine-3-carboxamide], the Kd was 0.499 nM.

Consider `C[C@@H]1CN(c2cc(F)c(C3=CCCN(C(=O)OC(C)(C)C)C3)cc2NC(=O)c2cn(C)c(=O)cc2C(F)(F)F)C[C@H](C)N1C` [Example 325, tert-butyl 5-[2-fluoro-5-[[-methyl-6-oxo-4-(trifluoromethyl)pyridine-3-carbonyl]amino]-4-[(3R,5S)-3,4,5-trimethylpiperazin-1-yl]phenyl]-3,6-dihydro-2H-pyridine-1-carboxylate], for which the Kd came to 7.3 nM.

Still in this test, the particulars now being: surface plasmon resonance (SPR); read-out: WDR5 binding affinity (KD).
On to `C[C@@H]1CN(c2cc(F)c(C3=CCCN(c4ncccn4)C3)cc2NC(=O)c2c[nH]c(=O)cc2C(F)F)C[C@H](C)N1C` [Example 644, 4-(difluoromethyl)-N-[4-fluoro-5-(1-pyrimidin-2-yl-3,6-dihydro-2H-pyridin-5-yl)-2-[(3R,5S)-3,4,5-trimethylpiperazin-1-yl]phenyl]-6-oxo-1H-pyridine-3-carboxamide], for which the Kd turned out to be 1.32 nM.

Take `C[C@@H]1CN(c2cc(F)c(-c3ccc(C(N)=O)c(F)c3)cc2NC(=O)c2cn(C)c(=O)cc2C(F)(F)F)C[C@H](C)N1C` [Example 590, N-[5-(4-carbamoyl-3-fluorophenyl)-4-fluoro-2-[(3R,5S)-3,4,5-trimethylpiperazin-1-yl]phenyl]-1-methyl-6-oxo-4-(trifluoromethyl)pyridine-3-carboxamide]: the Kd was 3.32 nM.

Regarding `C[C@@H]1CN(c2cc(F)c(-c3nc(C(=O)N4CCN(C)CC4)cs3)cc2NC(=O)c2c[nH]c(=O)cc2C(F)(F)F)C[C@H](C)N1C` [Example 487, N-[4-fluoro-5-[4-(4-methylpiperazine-1-carbonyl)-1,3-thiazol-2-yl]-2-[(3R,5S)-3,4,5-trimethylpiperazin-1-yl]phenyl]-6-oxo-4-(trifluoromethyl)-1H-pyridine-3-carboxamide], the Kd turned out to be 2.81 nM.

Regarding `C[C@@H]1CN(c2cc(F)c(-c3ccc(C(=O)N(C)CC4CC4)c(F)c3)cc2NC(=O)c2c[nH]c(=O)cc2C(F)(F)F)C[C@H](C)N1C` [Example 733, N-[5-[4-[cyclopropylmethyl(methyl)carbamoyl]-3-fluorophenyl]-4-fluoro-2-[(3R,5S)-3,4,5-trimethylpiperazin-1-yl]phenyl]-6-oxo-4-(trifluoromethyl)-1H-pyridine-3-carboxamide], the Kd amounted to 1.29 nM.

Consider `C[C@@H]1CN(c2cc(F)c(-c3cnc(N4CCOCC4)nc3)cc2NC(=O)c2cc(N)c(F)cc2C(F)(F)F)C[C@H](C)N1C` [Example 502, 5-amino-4-fluoro-N-[4-fluoro-5-(2-morpholin-4-ylpyrimidin-5-yl)-2-[(3R,5S)-3,4,5-trimethylpiperazin-1-yl]phenyl]-2-(trifluoromethyl)benzamide], for which the Kd is 1.15 nM.

Regarding `CC1CN(c2cc(F)c(-c3ccc(N4CCOCC4)c(F)c3)cc2NC(=O)c2cn(C)c(=O)cc2C(F)F)CCN1C` (stereo in doubt) [Example 478, 4-(difluoromethyl)-N-[4-fluoro-5-(3-fluoro-4-morpholin-4-ylphenyl)-2-[(3R)-3,4-dimethylpiperazin-1-yl]phenyl]-1-methyl-6-oxopyridine-3-carboxamide], the equilibrium dissociation constant (Kd) is 5.32 nM.

Regarding `C[C@@H]1CN(c2cc(F)c(-c3csc(C(=O)N4CCN(C)CC4)n3)cc2NC(=O)c2c[nH]c(=O)cc2C(F)(F)F)C[C@H](C)N1C` [Example 536, N-[4-fluoro-5-[2-(4-methylpiperazine-1-carbonyl)-1,3-thiazol-4-yl]-2-[(3R,5S)-3,4,5-trimethylpiperazin-1-yl]phenyl]-6-oxo-4-(trifluoromethyl)-1H-pyridine-3-carboxamide], the Kd stood at 1.03 nM.

Turning to `C[C@@H]1CN(c2cc(F)c(-c3csc(C(=O)N(C)CC4CC4)n3)cc2NC(=O)c2cn(C)c(=O)cc2C(F)(F)F)C[C@H](C)N1C` [Example 524, N-(cyclopropylmethyl)-4-[2-fluoro-5-[[-methyl-6-oxo-4-(trifluoromethyl)pyridine-3-carbonyl]amino]-4-[(3R,5S)-3,4,5-trimethylpiperazin-1-yl]phenyl]-N-methyl-1,3-thiazole-2-carboxamide], the Kd is 5.03 nM.

As for `CC1CN(c2cc(F)c(-c3ccc(N4CCOCC4)c(F)c3)cc2NC(=O)c2c[nH]c(=O)cc2C(F)F)CCN1C` (stereo in doubt) [Example 448, 4-(difluoromethyl)-N-[4-fluoro-5-(3-fluoro-4-morpholin-4-ylphenyl)-2-[(3R)-3,4-dimethylpiperazin-1-yl]phenyl]-6-oxo-1H-pyridine-3-carboxamide], the Kd worked out at 1.01 nM.

With `C[C@@H]1CN(c2cc(F)c(-c3ccc4scnc4c3)cc2NC(=O)c2cn(C)c(=O)cc2C(F)F)C[C@H](C)N1C` [Example 683, N-[5-(1,3-benzothiazol-5-yl)-4-fluoro-2-[(3R,5S)-3,4,5-trimethylpiperazin-1-yl]phenyl]-4-(difluoromethyl)-1-methyl-6-oxopyridine-3-carboxamide], the dissociation constant (Kd) amounted to 12.3 nM.

Regarding `C[C@@H]1CN(c2cc(F)c(-c3cc(C(N)=O)c(F)cc3F)cc2NC(=O)c2c[nH]c(=O)cc2C(F)(F)F)C[C@H](C)N1C` [Example 632, N-[5-(5-carbamoyl-2,4-difluorophenyl)-4-fluoro-2-[(3R,5S)-3,4,5-trimethylpiperazin-1-yl]phenyl]-6-oxo-4-(trifluoromethyl)-1H-pyridine-3-carboxamide], the Kd stood at 11.4 nM.

As for `CNC(=O)c1ccc(-c2cc(NC(=O)c3c[nH]c(=O)cc3C(F)F)c(N3C[C@@H](C)N(C)[C@@H](C)C3)cc2F)cc1F` [Example 605, 4-(difluoromethyl)-N-[4-fluoro-5-[3-fluoro-4-(methylcarbamoyl)phenyl]-2-[(3R,5S)-3,4,5-trimethylpiperazin-1-yl]phenyl]-6-oxo-1H-pyridine-3-carboxamide], the Kd came out at 0.6 nM.

With `C[C@@H]1CN(c2ccc(-c3cc(NC(=O)c4c[nH]c(=O)cc4C(F)F)c(N4CCN(C)[C@@H](C)C4)cc3F)cn2)CCO1` [Example 509, 4-(difluoromethyl)-N-[4-fluoro-2-[(3S)-3,4-dimethylpiperazin-1-yl]-5-[6-[(2R)-2-methylmorpholin-4-yl]pyridin-3-yl]phenyl]-6-oxo-1H-pyridine-3-carboxamide], the Kd is 0.947 nM.

For orientation: Kd means a measure of binding affinity in units of concentration.
